From patent US20050048088A1, “Compositions comprising at least two nanoemulsions” (priority 2003, published 2005)

Assay: Recrystallization of CoQ10 from warm oil/alcohol solution on cooling to room temperature
Type: physicochemical
Details: cooled to room temperature (25° C.)
Experimental: (§1) 30 g of lecithin were dissolved in 100 g of alcohol and added with stirring to 520 g of water and 200 g of glycerin. 10 g of Coenzyme Q10 (ubichinone) [CoQ10] were dissolved at 40° C. in 40 g of vegetable oil and 100 g of alcohol (ethanol). […] Therefore, the CoQ10 solution, having a temperature of 40° C., was added to the lecithin/alcohol/glycerin/water mixture and then homogenized six times at 1200 bar (1.2·10^8 Pa) using a high pressure homgenizer of Microfluidics Corp (MT 110®), Thereby, the alcohol was homogeneously distributed in the nanoemulsion. An orange transparent nanoemulsion was obtained.
as §1, with “50 g” for “30 g”, “to 430” for “to 520”, “glycerin. 80” for “glycerin. 10”, “at 45°” for “at 40°”, “pressure homogenizer” for “pressure homgenizer”, “(MT 110®).” for “(MT 110®),”

## COC1=C(OC)C(=O)C(C/C=C(\C)CC/C=C(\C)CC/C=C(\C)CC/C=C(\C)CC/C=C(\C)CC/C=C(\C)CC/C=C(\C)CC/C=C(\C)CC/C=C(\C)CCC=C(C)C)=C(C)C1=O [CoQ10, Coenzyme Q10]
10 g CoQ10 dissolved at 40° C. in 40 g vegetable oil and 100 g alcohol
  behaviour of CoQ10 solution on cooling: most of the CoQ10 recrystallizes out from the solution after some hours
80 g CoQ10 dissolved at 45° C. in 40 g vegetable oil and 100 g alcohol
  behaviour of CoQ10 solution on cooling: most of the CoQ10 recrystallized out from the solution after some hours
